From ChEMBL document CHEMBL5465560, “Selectivity Literature for EUbOPEN Chemogenomic Library” (2024)
Values belong to the molecule of their own block, whether it stands above or below them.

Legend:
[1] = tested on: Leucine-rich repeat serine/threonine-protein kinase 2 (Homo sapiens), Q5S007 [G2019S]; test: Selectivity interaction (Adapta Assay) EUB0001632a LRRK2; conditions: at 10 µM
[2] = molecular target: Ribosomal protein S6 kinase alpha-4 (Homo sapiens) (UniProt O75676); test: Selectivity interaction (KinomeScan (DiscoverX)) EUB0000666a RPS6KA4; conditions: at 10 µM
Chain of Ribosomal protein S6 kinase alpha-4 (Homo sapiens) (O75676 whole entry, looked up): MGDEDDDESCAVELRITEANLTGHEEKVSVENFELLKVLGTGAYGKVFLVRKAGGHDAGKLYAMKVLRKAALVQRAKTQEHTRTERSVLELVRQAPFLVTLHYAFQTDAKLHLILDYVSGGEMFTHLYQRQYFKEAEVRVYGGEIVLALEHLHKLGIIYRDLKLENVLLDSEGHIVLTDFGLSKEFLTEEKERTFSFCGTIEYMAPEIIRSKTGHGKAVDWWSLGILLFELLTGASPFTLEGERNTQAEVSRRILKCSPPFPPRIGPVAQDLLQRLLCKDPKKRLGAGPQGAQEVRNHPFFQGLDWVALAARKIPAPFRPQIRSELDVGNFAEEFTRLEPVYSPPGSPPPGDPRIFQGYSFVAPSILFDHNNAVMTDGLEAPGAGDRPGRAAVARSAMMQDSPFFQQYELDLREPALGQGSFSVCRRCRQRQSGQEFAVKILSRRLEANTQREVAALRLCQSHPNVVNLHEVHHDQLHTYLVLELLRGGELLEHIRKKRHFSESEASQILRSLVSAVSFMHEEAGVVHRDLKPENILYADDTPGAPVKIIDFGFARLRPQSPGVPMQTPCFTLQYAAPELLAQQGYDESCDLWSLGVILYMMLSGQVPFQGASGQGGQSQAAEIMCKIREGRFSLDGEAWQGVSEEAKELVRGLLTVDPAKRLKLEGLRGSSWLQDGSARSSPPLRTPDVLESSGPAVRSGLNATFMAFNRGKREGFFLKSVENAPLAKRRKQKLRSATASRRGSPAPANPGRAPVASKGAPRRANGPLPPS

[3] = molecular target: T1, Sphingosine kinase 2 (Homo sapiens) (UniProt Q9NRA0); test: Selectivity interaction (Kinase panel (literature)) EUB0001199aCl SPHK2; conditions: at 1 µM
T1 sequence (whole entry): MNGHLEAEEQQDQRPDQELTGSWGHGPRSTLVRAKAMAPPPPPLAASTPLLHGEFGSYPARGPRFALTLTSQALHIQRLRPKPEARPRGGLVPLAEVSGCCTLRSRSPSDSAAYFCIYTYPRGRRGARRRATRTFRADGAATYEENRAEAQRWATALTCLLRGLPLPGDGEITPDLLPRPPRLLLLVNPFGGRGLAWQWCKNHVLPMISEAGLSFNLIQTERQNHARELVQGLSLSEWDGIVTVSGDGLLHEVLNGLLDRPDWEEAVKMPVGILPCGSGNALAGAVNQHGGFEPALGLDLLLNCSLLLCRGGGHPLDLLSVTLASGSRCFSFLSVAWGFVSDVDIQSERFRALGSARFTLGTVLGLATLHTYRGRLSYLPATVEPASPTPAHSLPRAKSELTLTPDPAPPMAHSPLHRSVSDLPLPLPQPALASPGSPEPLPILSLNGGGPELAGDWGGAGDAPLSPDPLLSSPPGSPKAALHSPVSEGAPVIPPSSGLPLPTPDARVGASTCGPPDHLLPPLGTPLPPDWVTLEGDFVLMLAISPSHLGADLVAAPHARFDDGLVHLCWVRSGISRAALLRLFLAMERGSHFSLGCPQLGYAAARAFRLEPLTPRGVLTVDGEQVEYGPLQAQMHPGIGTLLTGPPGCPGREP

[4] = molecular target: Homeodomain-interacting protein kinase 1 (Homo sapiens, UniProt Q86Z02); test: Selectivity interaction (Upstate Kinase Profiler service (Millipore)) EUB0000056c HIPK1; conditions: at 1 µM
Chain of Homeodomain-interacting protein kinase 1 (Q86Z02 whole entry, looked up): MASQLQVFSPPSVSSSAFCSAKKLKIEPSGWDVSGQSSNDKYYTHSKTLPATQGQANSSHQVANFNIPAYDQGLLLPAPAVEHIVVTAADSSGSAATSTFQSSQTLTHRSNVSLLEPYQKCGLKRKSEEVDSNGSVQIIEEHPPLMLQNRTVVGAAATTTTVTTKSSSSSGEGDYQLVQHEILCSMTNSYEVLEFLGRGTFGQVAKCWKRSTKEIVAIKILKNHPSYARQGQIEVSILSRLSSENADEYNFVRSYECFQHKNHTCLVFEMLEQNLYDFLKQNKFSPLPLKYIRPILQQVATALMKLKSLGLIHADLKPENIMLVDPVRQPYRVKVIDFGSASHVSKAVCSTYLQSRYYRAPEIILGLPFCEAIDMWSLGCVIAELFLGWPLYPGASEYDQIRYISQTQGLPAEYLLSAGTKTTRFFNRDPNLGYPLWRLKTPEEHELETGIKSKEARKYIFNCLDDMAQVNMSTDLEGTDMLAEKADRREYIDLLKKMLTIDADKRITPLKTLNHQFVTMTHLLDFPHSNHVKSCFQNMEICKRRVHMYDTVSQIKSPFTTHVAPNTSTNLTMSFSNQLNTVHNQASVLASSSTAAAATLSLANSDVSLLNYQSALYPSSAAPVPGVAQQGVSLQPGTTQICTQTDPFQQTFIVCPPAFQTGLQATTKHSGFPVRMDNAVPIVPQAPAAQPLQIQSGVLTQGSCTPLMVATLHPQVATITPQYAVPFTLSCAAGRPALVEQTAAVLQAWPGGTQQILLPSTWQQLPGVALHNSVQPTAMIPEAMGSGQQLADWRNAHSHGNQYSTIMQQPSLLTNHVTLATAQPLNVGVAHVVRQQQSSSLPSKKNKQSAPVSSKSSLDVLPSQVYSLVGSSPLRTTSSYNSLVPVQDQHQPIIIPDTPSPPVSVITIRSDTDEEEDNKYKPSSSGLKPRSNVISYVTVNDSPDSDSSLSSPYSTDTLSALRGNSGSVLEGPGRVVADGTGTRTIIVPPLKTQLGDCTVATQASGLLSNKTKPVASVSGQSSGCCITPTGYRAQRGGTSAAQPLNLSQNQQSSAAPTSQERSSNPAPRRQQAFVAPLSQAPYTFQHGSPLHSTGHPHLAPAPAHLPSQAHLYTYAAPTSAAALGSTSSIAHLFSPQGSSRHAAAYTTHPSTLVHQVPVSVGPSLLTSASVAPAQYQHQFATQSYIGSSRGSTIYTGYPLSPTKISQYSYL

[5] = molecular target: T2, Ephrin type-B receptor 1 (Homo sapiens) (UniProt P54762); test: Selectivity interaction (ActivX KiNativ screen (kinase selectivity in THP-1 cell lysates)) EUB0000639a EPHB1; type: subcellular; conditions: lysate
T2 sequence (whole entry): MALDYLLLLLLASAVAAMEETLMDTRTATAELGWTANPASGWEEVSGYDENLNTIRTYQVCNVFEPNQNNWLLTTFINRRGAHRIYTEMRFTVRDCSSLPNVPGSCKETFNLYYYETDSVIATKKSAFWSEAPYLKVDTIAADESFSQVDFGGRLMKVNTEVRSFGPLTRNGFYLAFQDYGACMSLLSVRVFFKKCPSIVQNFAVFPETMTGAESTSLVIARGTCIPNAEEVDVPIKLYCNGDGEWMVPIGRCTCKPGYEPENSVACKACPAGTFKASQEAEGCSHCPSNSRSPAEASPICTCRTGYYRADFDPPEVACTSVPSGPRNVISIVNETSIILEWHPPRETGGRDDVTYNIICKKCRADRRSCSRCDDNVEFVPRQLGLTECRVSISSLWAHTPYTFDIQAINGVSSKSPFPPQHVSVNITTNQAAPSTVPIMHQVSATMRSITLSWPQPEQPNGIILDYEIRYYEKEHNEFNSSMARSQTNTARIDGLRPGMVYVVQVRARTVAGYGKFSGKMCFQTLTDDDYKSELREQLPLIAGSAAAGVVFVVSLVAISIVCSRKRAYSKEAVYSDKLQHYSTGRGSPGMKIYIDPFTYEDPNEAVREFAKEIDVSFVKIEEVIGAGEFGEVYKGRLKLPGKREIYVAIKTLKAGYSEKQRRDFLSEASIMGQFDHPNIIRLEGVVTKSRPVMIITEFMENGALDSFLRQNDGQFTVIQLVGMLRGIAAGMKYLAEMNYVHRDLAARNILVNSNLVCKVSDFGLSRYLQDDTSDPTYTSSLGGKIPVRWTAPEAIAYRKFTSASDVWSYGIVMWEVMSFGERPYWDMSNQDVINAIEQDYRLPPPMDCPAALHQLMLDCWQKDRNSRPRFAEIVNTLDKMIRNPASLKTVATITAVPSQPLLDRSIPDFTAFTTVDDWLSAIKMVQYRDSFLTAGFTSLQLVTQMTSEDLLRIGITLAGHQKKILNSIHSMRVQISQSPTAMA

[6] = molecular target: Casein kinase I isoform delta (Homo sapiens, UniProt P48730); test: Selectivity interaction (KinomeScan (DiscoverX)) EUB0000655a CSNK1D; conditions: at 10 µM
Chain of Casein kinase I isoform delta (P48730 whole entry, looked up, canonical isoform): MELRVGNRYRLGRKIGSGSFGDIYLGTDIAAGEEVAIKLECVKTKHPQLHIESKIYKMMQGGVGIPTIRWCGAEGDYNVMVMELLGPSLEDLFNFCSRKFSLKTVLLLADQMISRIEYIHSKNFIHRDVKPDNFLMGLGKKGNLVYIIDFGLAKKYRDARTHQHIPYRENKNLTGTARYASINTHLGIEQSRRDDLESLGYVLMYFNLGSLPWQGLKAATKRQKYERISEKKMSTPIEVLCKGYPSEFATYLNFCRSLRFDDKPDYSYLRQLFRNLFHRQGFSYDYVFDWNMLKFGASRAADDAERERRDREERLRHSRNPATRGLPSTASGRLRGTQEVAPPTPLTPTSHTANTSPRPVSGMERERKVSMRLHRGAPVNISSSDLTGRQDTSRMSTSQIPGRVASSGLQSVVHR

[7] = molecular target: MAP kinase-interacting serine/threonine-protein kinase 2 (Homo sapiens, UniProt Q9HBH9); test: Selectivity interaction (KinomeScan (DiscoverX)) EUB0000618a MKNK2; conditions: at 10 µM
Chain of MAP kinase-interacting serine/threonine-protein kinase 2 (Q9HBH9 whole entry, looked up): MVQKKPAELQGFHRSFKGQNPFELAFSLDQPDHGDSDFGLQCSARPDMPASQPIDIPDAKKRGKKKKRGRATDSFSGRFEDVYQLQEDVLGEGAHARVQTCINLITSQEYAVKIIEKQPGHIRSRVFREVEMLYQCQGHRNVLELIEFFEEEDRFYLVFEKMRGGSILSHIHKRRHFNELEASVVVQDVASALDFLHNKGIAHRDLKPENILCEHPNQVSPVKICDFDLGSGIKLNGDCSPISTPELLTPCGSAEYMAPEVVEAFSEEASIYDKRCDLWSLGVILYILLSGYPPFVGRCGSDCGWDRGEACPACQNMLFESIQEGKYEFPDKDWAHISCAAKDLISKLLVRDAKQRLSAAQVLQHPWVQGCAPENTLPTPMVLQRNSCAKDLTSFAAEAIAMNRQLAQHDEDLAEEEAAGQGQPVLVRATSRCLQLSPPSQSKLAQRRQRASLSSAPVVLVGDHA

% of inhibition [1]: 95%
Compound: Cn1cc(-n2cnc3c(NCc4nc5cc(Cl)c(Cl)cc5[nH]4)nc(N4CCOCC4)nc32)cn1

Compound: O=C(NOC[C@H](O)CO)c1ccc(F)c(F)c1Nc1ccc(I)cc1F
% of control [2]: 86%

% of inhibition [3]: -7%
Compound: CN1Cc2nccc(-c3cn(C)nc3-c3ccc(F)cc3)c2C1=O

% of inhibition [4]: 7%
Compound: Cc1ccc(-c2ccc3c(ccc4sc5c(c43)NC[C@@H](C)NC5=O)n2)cn1

% of inhibition ([5]; at 0.01 µM): -7%
% of inhibition ([5]; at 0.04 µM): -38.7%
% of inhibition ([5]; at 0.2 µM): -5.5%
% of inhibition ([5]; at 1 µM): -14.3%
% of inhibition ([5]; at 5 µM): -6.5%
Compound: CC[C@@H]1[C@H](F)C(=O)N[C@@H]1COc1nccc2cc(C(N)=O)c(OC)cc12 [ZIMLOVISERTIB]

Compound: CN(C)CCOc1ccc(-c2nc(-c3ccncc3)c(-c3ccc4c(c3)CC/C4=N\O)[nH]2)cc1
% of control [6]: 4%

Compound: O[C@H]1CC[C@H](Nc2ncc3nc(Nc4c(F)cc(F)cc4F)n([C@H]4CCOC4)c3n2)CC1
% of control [7]: 100%
